In assay [1] the test system is cisplatin-induced acute kidney injury in mice. The assay can be described thus: Cisplatin-induced acute kidney injury in mice: serum indexes and urinary protein. To be noted: for Urinary Protein / BUN / CREA / TP: by gavage, 4 days; for Urinary Protein: one hour after the last administration; for BUN / CREA / TP: serum. The class given is in vivo, ICR mice. The protocol: After intraperitoneal injection of cisplatin, cisplatin was toxic to different parts of the kidney. It could cause changes in the function and morphology of glomerulus and renal tubules. Cisplatin could cause renal vasoconstriction, reduce renal blood flow and glomerular filtration rate, and thus cause proteinuria, renal function damage and other symptoms. In this study, B4 was administered by different routes (rectum and oral) to observe the preventive and therapeutic effects of B4 on cisplatin-induced ARF in mice.
2.1.2 Reagent: cisplatin, the original solution 5 mg/kg.
(§1) Dexamethasone solution: 4 tablets of dexamethasone were ground and dissolved in 100 ml double distilled water, and then diluted to 0.03 mg/ml.
B4 raw powder solution: 1000 mg of B4 raw powder was weighed, ground, and dissolved in 100 ml double distilled water to obtain 10 mg/ml solution.
The model was established by cisplatin at a dosage of […]. The normal group was intraperitoneally injected with normal saline, and the other groups were intraperitoneally injected with cisplatin injection.
The animals were randomly divided into blank group; model group; positive drug group (dexamethasone group); B4 gel high, medium, and low dose groups; B4 suppository high, medium, and low dose groups; B4 raw powder group; 10 animals for each group. Animals in B4 gel groups received the gel by rectum at 0.3 ml/100 g body weight; animals in B4 suppository groups received the suppository by rectum; B4 raw powder group and positive group were given corresponding drugs by gavage according to 20 m/kg body weight. The model group and the blank group were given the same volume of double distilled water by gavage. The drug was continuously administered for 4 days from the day of modeling. Animals were fasted for 16-18 hours before administration on day 4.
One hour after the last administration, urine was collected to measure urine proteins. Blood samples were taken from eyeballs to separate serum. Total protein (TP), urea nitrogen (BUN) and creatinine (Cre) were detected by automatic biochemical analysis.

Assay [2] deals with gentamicin-induced acute kidney injury in rats. Briefly: Gentamicin-induced acute kidney injury in rats: serum indexes and urinary protein. To be noted: for Urinary Protein, 5th day of administration / Urinary Protein, 6th day of administration / Urinary Protein, 7th day of administration / BUN / CREA / TP: by gavage; for BUN / CREA / TP: serum, 7 days. It counts as in vivo, SD rats.
Excerpt: Acute renal failure induced by gentamicin was mainly manifested in the increase of creatinine and urea nitrogen, but the mechanism of gentamicin induced nephrotoxicity was still unclear. In this experiment, two kinds of rectal mucosa administration preparations of Pulsatilla chinensis saponin B4 according to the present invention were infused by anus to observe the preventive and therapeutic effects of tested drugs on gentamicin-induced ARF in rats, and compared with oral (gavage) administration of Pulsatilla chinensis saponin B4.
as §1
B4 raw powder solution: 2000 mg of B4 raw powder was weighed, ground, and dissolved in 100 ml double distilled water to obtain 20 mg/ml solution.
Rats in experimental groups were intraperitoneally injected with gentamicin sulfate solution at the dose of 140 mg/kg, while the rats in the blank group were intraperitoneally injected with equal volume of normal saline, and the administration was continued for 7 days to make a model.
The animals were randomly divided into blank group; model group; positive drug group (dexamethasone group); B4 gel high, medium, and low dose groups; B4 suppository high, medium, and low dose groups; B4 powder group; 10 animals for each group. Animals in B4 gel groups received the gel by rectum at 0.3 ml/100 g body weight; animals in B4 suppository groups received the suppository by rectum; B4 raw powder group and positive group were given corresponding drugs by gavage according to 10 ml/kg body weight. The model group and the blank group were given the same volume of double distilled water by gavage. The drug was continuously administered for 7 days from the second day of modeling.
Urine proteins were detected by Coomassie brilliant blue method. After isoflurane anesthesia, blood samples were taken from eyeballs of rats. Serum was separated. Total protein (TP), urea nitrogen (BUN), and creatinine (CRE) were detected by automatic biochemical analysis.

[3] abbreviates: gel and suppository by rectum, raw powder oral.

For the compound `C[C@@H]1C[C@H]2[C@@H]3CCC4=CC(=O)C=C[C@]4(C)[C@@]3(F)[C@@H](O)C[C@]2(C)[C@@]1(O)C(=O)CO` [Dexamethasone, reference compound], in assay [1] (0.6 mg/kg), the “Urinary Protein” value came out at 1.00 mg/mL, the BUN was found to be 42.97 mg/dL, the CREA was 30.10 µmol/L and the TP is reported as 52.90 g/L. Further, in assay [2] (0.3 mg/kg), the “Urinary Protein, 5th day of administration” value amounted to 5.15 ± 0.89 mg/mL; the “Urinary Protein, 6th day of administration” value is 5.52 ± 1.36 mg/mL; the “Urinary Protein, 7th day of administration” value came to 5.63 ± 0.58 mg/mL; the BUN came to 79.3 ± 33.6 mg/dL. In assay [2] (0.3 mg/kg), this compound had a CREA of 83.2 ± 31.9 µmol/L and a TP of 65.7 ± 5.8 g/L.
Turning to `C=C(C)C1CC[C@]2(C(=O)O[C@@H]3O[C@H](CO[C@@H]4O[C@H](CO)[C@@H](O[C@@H]5O[C@@H](C)[C@H](O)[C@@H](O)[C@H]5O)[C@H](O)[C@H]4O)[C@@H](O)[C@H](O)[C@H]3O)CC[C@]3(C)[C@H](CC[C@@H]4[C@@]5(C)CC[C@H](OC6OC[C@H](O)[C@H](O)[C@H]6O[C@@H]6O[C@@H](C)[C@H](O)[C@@H](O)[C@H]6O)[C@@](C)(CO)[C@@H]5CC[C@]43C)[C@@H]12` (stereo partly shown) [B4 raw powder, Pulsatilla chinensis saponin B4], in assay [1] (400 mg/kg), the “Urinary Protein” value turned out to be 1.55 mg/mL, the BUN was 55.86 mg/dL, the CREA is 38.11 ± 9.56 µmol/L and the TP stood at 46.12 ± 2.27 g/L. Further, in assay [1] (setting [3]), the “effect on renal function, conclusion in words” value was “no significant difference compared with the model group”. In addition, in assay [2] (200 mg/kg), the “Urinary Protein, 5th day of administration” value stood at 4.86 ± 1.22 mg/mL; the “Urinary Protein, 6th day of administration” value came out at 5.18 ± 1.15 mg/mL; the “Urinary Protein, 7th day of administration” value amounted to 5.38 ± 0.92 mg/mL; the BUN was 126.4 mg/dL. In assay [2] (200 mg/kg), this compound yielded a CREA of 268.7 ± 56.2 µmol/L and a TP of 53.2 ± 4.3 g/L. Moreover, the “effect on renal function (creatinine and urea nitrogen), conclusion in words” value in assay [2] (setting [3]) is “had a tendency to improve the renal function”.

The values are drawn from US11253471B2, “Rectal mucosal administration preparation of Pulsatilla chinensis saponin B4 and preparation method therefor” (priority 2018, dated 2022).
